Blank lines part the entries; values can stand above or below the compound they belong to.
Key:
[1] = target: T1, Serine/threonine-protein kinase D1 (Homo sapiens) (UniProt Q15139); experiment: Selectivity interaction (Millipore kinase profiler) EUB0000124b PRKD1; details: at 10 µM
T1 sequence (whole entry): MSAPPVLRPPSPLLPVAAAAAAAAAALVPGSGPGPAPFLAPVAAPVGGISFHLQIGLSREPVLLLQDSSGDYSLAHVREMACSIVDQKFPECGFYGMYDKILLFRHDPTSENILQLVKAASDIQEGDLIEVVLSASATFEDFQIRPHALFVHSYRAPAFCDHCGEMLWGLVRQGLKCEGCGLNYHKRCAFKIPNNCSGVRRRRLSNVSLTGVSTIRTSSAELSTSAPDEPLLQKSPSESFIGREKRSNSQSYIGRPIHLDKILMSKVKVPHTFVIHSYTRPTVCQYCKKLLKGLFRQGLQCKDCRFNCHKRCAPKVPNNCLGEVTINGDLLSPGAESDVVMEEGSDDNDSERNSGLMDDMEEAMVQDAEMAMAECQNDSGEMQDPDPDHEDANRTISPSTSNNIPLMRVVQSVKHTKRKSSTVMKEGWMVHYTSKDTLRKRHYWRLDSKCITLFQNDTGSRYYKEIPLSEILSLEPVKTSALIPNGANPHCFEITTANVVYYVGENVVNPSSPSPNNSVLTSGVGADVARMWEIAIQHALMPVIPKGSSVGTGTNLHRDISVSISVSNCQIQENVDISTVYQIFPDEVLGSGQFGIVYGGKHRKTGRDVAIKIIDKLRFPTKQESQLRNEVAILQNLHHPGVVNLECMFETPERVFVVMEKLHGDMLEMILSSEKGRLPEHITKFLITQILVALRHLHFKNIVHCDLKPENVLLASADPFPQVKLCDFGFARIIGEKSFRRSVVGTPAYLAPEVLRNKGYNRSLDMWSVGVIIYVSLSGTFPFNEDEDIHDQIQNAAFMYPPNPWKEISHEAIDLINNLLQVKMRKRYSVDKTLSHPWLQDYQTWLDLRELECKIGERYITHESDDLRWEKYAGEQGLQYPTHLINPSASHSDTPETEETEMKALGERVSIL

[2] = target: Rho-associated protein kinase 2 (Homo sapiens, UniProt O75116); experiment: Selectivity interaction (KinomeScan (DiscoverX)) EUB0001049a ROCK2; details: at 1 µM
Sequence of Rho-associated protein kinase 2 (O75116 whole entry, looked up): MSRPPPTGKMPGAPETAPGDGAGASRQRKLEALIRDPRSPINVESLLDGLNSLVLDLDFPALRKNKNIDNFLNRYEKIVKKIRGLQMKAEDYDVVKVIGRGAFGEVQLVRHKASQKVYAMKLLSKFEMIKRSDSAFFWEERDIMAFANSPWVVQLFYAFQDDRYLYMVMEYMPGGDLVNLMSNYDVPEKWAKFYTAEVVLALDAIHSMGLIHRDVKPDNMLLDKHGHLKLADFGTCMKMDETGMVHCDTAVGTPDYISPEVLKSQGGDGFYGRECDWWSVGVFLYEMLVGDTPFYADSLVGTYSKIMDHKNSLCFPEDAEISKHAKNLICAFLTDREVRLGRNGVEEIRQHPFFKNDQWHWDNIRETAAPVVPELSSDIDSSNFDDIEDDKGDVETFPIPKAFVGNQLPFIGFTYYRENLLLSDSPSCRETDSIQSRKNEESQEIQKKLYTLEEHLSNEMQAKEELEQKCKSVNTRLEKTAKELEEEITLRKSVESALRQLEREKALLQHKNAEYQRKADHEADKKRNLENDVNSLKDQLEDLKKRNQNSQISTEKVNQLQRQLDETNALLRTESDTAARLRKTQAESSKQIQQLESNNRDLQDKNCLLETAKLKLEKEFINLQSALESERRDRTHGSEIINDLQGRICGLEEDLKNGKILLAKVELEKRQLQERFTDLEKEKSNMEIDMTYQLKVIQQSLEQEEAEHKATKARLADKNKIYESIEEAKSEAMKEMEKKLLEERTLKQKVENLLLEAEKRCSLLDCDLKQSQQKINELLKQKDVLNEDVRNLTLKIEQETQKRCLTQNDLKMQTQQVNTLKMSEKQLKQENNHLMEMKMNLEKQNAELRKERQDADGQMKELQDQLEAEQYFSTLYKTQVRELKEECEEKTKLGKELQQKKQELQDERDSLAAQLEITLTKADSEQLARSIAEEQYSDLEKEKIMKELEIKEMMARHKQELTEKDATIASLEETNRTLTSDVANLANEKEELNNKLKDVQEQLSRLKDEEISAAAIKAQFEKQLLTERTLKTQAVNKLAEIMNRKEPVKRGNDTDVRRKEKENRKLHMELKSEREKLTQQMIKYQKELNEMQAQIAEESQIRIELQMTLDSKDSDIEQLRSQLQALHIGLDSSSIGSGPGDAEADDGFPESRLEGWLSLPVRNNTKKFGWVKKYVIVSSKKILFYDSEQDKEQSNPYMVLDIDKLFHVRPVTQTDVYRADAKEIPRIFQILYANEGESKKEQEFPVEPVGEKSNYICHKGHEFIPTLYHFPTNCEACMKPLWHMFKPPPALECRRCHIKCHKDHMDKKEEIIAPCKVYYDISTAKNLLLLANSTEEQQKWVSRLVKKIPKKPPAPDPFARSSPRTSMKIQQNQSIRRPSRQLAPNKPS

[3] = target: Fibroblast growth factor receptor 3 (Homo sapiens, UniProt P22607); experiment: (§1) Selectivity interaction (KinomeScan (DiscoverX)) EUB0001049a FGFR3; details: at 1 µM
Sequence of Fibroblast growth factor receptor 3 (P22607 23-806 limits assumed): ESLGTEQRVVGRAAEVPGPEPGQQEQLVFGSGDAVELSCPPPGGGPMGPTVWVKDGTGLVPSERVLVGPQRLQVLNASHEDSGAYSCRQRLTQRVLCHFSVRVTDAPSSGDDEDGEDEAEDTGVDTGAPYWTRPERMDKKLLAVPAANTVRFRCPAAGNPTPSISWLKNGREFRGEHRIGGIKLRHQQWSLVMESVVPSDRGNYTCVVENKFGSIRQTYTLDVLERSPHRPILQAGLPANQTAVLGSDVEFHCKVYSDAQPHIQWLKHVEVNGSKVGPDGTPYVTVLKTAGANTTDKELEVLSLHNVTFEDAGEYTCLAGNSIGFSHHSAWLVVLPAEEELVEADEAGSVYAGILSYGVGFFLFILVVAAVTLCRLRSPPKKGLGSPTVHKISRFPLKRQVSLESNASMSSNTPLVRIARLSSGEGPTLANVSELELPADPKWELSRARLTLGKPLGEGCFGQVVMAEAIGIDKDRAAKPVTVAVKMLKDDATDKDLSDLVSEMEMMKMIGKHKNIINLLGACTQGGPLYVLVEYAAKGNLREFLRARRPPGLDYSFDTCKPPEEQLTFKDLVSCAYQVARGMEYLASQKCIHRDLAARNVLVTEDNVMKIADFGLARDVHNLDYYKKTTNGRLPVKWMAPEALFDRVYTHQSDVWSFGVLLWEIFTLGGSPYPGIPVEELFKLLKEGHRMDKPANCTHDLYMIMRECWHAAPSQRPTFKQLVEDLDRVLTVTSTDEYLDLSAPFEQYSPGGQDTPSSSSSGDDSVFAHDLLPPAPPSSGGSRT

[4] = tested on: Fibroblast growth factor receptor 3 (Homo sapiens), P22607 [G697C]; experiment: as §1; details: at 1 µM
[5] = target: T2, Ankyrin repeat and protein kinase domain-containing protein 1 (Homo sapiens) (UniProt Q8NFD2); experiment: Selectivity interaction (Ambit KINOMEscan and KiNATiv profiling in Jurkat cells) EUB0000090b ANKK1; type: cell-based; details: at 1 µM
T2 sequence (whole entry): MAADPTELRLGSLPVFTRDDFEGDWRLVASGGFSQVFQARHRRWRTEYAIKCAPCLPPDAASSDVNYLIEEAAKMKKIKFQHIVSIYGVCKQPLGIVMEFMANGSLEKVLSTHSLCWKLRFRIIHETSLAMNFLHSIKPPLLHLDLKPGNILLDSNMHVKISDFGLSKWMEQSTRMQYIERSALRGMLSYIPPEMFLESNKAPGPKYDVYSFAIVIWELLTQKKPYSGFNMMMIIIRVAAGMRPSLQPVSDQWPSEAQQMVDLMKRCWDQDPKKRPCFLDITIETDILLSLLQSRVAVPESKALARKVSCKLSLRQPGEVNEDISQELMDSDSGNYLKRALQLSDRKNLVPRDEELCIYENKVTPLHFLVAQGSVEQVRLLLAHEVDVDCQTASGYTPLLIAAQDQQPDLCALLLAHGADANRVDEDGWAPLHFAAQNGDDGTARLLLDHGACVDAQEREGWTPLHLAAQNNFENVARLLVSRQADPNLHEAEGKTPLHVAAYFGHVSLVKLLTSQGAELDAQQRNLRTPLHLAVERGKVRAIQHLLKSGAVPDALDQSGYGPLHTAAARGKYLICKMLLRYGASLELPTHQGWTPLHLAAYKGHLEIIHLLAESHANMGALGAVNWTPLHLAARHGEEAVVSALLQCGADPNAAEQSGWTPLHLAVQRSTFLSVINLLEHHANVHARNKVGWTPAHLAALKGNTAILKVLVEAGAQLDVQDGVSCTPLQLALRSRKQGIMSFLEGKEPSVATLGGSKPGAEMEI

[6] = tested on: Proto-oncogene tyrosine-protein kinase receptor Ret (Homo sapiens), P07949 [M918T]; experiment: (§2) Selectivity interaction (Ambit KINOMEscan and KiNATiv profiling in Jurkat cells) EUB0000090b RET; type: cell-based; details: at 1 µM
Sequence of Proto-oncogene tyrosine-protein kinase receptor Ret (Homo sapiens), P07949 [M918T] (P07949 whole entry M918T): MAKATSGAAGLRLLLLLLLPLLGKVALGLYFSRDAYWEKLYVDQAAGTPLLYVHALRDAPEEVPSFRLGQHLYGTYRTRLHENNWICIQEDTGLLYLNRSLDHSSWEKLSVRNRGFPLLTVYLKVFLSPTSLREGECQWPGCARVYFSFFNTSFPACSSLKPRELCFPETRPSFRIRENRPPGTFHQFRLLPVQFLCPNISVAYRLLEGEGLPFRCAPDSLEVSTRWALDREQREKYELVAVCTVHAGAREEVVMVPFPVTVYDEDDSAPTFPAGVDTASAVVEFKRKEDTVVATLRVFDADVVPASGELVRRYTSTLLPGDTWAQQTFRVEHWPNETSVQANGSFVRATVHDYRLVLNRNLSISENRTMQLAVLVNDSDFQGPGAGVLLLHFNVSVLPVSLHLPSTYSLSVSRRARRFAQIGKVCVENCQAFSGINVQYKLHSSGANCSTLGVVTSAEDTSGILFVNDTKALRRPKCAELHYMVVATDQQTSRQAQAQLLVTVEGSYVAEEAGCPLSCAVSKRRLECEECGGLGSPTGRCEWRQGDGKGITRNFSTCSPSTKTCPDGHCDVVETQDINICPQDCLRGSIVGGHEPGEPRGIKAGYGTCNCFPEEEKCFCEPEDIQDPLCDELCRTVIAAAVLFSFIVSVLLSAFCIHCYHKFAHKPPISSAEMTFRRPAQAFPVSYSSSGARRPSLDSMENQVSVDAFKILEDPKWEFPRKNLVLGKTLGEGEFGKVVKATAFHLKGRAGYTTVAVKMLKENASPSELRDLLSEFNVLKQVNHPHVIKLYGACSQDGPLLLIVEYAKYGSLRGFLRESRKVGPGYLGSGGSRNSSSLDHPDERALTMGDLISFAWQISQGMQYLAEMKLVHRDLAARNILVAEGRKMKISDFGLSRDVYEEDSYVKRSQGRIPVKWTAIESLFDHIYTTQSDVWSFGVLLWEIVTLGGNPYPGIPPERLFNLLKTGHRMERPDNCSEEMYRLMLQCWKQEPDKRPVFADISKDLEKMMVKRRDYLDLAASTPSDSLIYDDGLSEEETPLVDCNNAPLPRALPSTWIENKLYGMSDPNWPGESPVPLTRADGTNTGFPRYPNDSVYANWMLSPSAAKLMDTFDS

[7] = target: Proto-oncogene tyrosine-protein kinase receptor Ret (Homo sapiens, UniProt P07949); experiment: as §2; type: cell-based; details: at 1 µM
Sequence of Proto-oncogene tyrosine-protein kinase receptor Ret (P07949 whole entry): as the sequence (P07949 whole entry M918T) above, with T918M counted along it

[8] = tested on: Proto-oncogene tyrosine-protein kinase receptor Ret (Homo sapiens), P07949 [V804M]; experiment: as §2; type: cell-based; details: at 1 µM
[9] = tested on: Proto-oncogene tyrosine-protein kinase receptor Ret (Homo sapiens), P07949 [V804L]; experiment: as §2; type: cell-based; details: at 1 µM
[10] = target: T3, Phosphorylase b kinase gamma catalytic chain, liver/testis isoform (Homo sapiens) (UniProt P15735); experiment: Selectivity interaction (Kinase panel (Z-LYTE Assay)) EUB0001632a PHKG2; details: at 10 µM
T3 sequence (whole entry): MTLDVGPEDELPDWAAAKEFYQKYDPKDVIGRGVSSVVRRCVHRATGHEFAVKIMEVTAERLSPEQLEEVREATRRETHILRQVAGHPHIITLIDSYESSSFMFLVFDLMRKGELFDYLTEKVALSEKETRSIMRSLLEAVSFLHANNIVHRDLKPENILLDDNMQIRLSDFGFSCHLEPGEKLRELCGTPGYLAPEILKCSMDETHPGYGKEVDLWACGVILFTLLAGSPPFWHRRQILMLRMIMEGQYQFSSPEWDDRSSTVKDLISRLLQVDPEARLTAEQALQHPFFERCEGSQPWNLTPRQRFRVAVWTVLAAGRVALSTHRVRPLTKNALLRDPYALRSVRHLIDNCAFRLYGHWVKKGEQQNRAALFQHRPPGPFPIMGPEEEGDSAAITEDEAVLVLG

[11] = target: Serine/threonine-protein kinase B-raf (Homo sapiens) (UniProt P15056); experiment: (§3) Selectivity interaction (KinomeScan (DiscoverX)) EUB0000229b BRAF; details: at 10 µM
[12] = tested on: Serine/threonine-protein kinase B-raf (Homo sapiens), P15056 [V600E]; experiment: as §3; details: at 1 µM
[13] = target: Myosin light chain kinase, smooth muscle (Homo sapiens, UniProt Q15746); experiment: Selectivity interaction (Upstate Kinase Profiler service (Millipore)) EUB0000056c MYLK; details: at 1 µM

Structure (SMILES): COc1cc(Nc2nc(C)cc(-c3cnn4nc(OC)ccc34)n2)cc(C(F)(F)F)c1
% of control [2]: 100%
% of control [3]: 96%
% of control [4]: 96%

Structure (SMILES): CN(C)C/C=C/C(=O)Nc1ccc(C(=O)N2CCCC(Nc3ncc(Cl)c(-c4c[nH]c5ccccc45)n3)C2)cc1 (stereo not drawn)
% of control [5]: 91%
% of control [6]: 68%
% of control [7]: 90%
% of control [8]: 89%
% of control [9]: 71%

Structure (SMILES): COc1cc(N(C)c2ccnc3ccc(C(F)(F)F)cc23)cc(OC)c1OC
% binding [11]: 71%
% binding [12]: 78%

Further lines, results first:

% of control [1]: 111%
Structure (SMILES): CC(=O)Nc1cccc(-n2c(=O)n(C3CC3)c(=O)c3c(Nc4ccc(I)cc4F)n(C)c(=O)c(C)c32)c1

% of control [10]: 4.25%
Structure (SMILES): Cn1cc(-n2cnc3c(NCc4nc5cc(Cl)c(Cl)cc5[nH]4)nc(N4CCOCC4)nc32)cn1

% of inhibition [13]: 1%
Structure (SMILES): Cc1ccc(-c2ccc3c(ccc4sc5c(c43)NC[C@@H](C)NC5=O)n2)cn1

Reference: ChEMBL document CHEMBL5465560, “Selectivity Literature for EUbOPEN Chemogenomic Library” (2024)
